For test [1], the target named is T1, PPARγ (Homo sapiens, UniProt P37231).
T1 sequence (P37231 223-505 limits assumed): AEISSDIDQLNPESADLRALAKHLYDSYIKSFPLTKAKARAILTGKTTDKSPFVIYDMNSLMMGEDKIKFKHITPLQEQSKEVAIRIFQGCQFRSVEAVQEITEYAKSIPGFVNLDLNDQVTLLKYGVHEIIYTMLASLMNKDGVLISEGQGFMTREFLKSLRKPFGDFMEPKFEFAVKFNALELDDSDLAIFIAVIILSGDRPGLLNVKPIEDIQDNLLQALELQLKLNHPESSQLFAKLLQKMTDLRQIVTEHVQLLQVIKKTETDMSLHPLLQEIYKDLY
Description: TR-FRET coactivator. The test is classed as biochemical.

Test [2] concerns the target T1, PPARγ. Description: [3H]rosiglitazone radioligand displacement. The test is classed as binding.
The next test has as its target T2, PPARδ (Homo sapiens, UniProt Q03181).
T2 sequence (Q03181 171-441 limits assumed): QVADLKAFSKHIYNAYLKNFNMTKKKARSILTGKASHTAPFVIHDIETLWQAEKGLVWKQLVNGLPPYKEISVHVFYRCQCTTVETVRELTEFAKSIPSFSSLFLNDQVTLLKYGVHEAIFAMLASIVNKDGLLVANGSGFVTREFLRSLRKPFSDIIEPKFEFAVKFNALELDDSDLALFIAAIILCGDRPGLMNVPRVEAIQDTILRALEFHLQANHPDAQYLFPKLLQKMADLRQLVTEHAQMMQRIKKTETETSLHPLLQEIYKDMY
Description: AlphaScreen coactivator. In kind it is biochemical.

In another test the target is T3, PPARα (Homo sapiens, UniProt Q07869).
T3 sequence (Q07869 196-468 limits assumed): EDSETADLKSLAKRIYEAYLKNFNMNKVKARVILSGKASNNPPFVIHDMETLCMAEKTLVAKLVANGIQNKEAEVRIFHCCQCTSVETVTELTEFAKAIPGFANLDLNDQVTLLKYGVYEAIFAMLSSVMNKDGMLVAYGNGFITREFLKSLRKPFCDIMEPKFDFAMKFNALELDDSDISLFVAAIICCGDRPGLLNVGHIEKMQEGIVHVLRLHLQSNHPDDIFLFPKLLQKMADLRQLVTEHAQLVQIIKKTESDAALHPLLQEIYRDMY
Description: AlphaScreen coactivator. The test is classed as biochemical.

As for `O=C(Nc1ccccc1)c1cc([N+](=O)[O-])ccc1Cl` [GW9662], at PPARγ [1], the IC50 turned out to be 0.00452 µM.
The compound `CC(C)(C)c1ccc(-c2nc(CBr)nn2-c2cccc(O)c2)cc1` [MM902, 3‐(3‐(bromomethyl)‐5‐(4‐(tert‐butyl) phenyl)‐1H‐1,2,4‐triazol‐1‐yl) phenol] registered a Ki on PPARγ [2] of 0.14 µM. Besides, the IC50 amounted to 48 µM against PPARδ and 46 µM against PPARα.

These data come from article PMC7719157 (Pharmacology Research & Perspectives, 2020).
